Laboratory results from US5707966A, “Antithrombotic agents” (Eli Lilly and Company, priority 1995, dated 1998).
Structures can show the parent of a compound that is named as a salt. Where two headings read alike, the source gives them in different places.

Legend:
Assay type in all cases: biochemical
[1] = test system: Human plasma; assay: Human plasma anticoagulation, prothrombin time (PT); conditions: concentration required to double the PT, linear extrapolation
Method in brief: (§1)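 Prolongation of human plasma clotting was measured for PT (thromboplastin reagent), APTT (Actin, 120 s, then 0.02M CaCl2) and TT (bovine thrombin, 10 NIH units/mL). Concentration needed for a doubled time was estimated by linear extrapolation.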

[2] = target: T1, Bovine trypsin (Bos taurus, UniProt P00760); assay: Kass with trypsin, chromogenic substrate; conditions: substrate N-Benzoyl-Phe-Val-Arg-p-nitroanilide
T1 construct: Bovine trypsin is purchased; purchased Worthington Biochemicals, Freehold, N.J
T1 sequence (P00760 24-246): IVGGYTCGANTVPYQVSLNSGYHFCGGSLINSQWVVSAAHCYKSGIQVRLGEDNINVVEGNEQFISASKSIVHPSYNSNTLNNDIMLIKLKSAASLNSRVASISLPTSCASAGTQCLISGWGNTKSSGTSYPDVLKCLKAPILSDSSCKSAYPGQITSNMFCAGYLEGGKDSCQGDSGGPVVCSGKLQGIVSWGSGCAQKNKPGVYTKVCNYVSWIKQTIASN

[3] = test system: Human plasma; assay: Human plasma anticoagulation, activated partial thromboplastin time (APTT); conditions: concentration required to double the APTT, linear extrapolation
Method in brief: as §1

[4] = target: Human Thrombin (Homo sapiens, UniProt P00734); assay: Inhibition of amidase activity of thrombin (Kass)
[5] = test system: Human plasma; assay: Human plasma anticoagulation, thrombin time (TT); conditions: concentration required to double the thrombin time, linear extrapolation
Method in brief: as §1

[6] = target: T2, factor Xa (Homo sapiens, UniProt P00742); assay: Kass with factor Xa, chromogenic substrate; conditions: substrate N-Benzoyl-Ile-Glu-Gly-Arg-p-nitroanilide
T2 construct: Human factors X, Xa, IXa, XIa, and XIIa are purchased; purchased Enzyme Research Laboratories, South Bend, Ind

[7] = target: T3, t-PA (Homo sapiens, UniProt P00750); assay: Kass with t-PA, chromogenic substrate; conditions: substrate H-D-Ile-Pro-Arg-p-nitroanilide
T3 construct: purchased American Diagnostica, Greenwich, Conn
Method: By substantially following the procedures described above for human thrombin, and using other human blood coagulation system serine proteases and proteases of the fibrinolytic system with the appropriate chromogenic substrates, identified below, selectivity of the compounds of the present invention with respect to the coagulation factor serine proteases and with respect to the fibrinolytic system serine proteases are evaluated as well as their substantial lack of interference with serine proteases of the fibrinolytic system. Thrombin inhibitors preferably should spare fibrinolysis induced by urokinase, tissue plasminogen activator (t-PA) and streptokinase. This would be important to the therapeutic use of such agents as an adjunct to streptokinase, t-PA or urokinase thrombolytic therapy and to the use of such agents as an endogenous fibrinolysis-sparing (with respect to t-PA and urokinase) antithrombotic agent. In addition to the lack of interference with the amidase activity of the fibrinolytic proteases, such fibrinolytic system sparing can be studied by the use of human plasma clots and their lysis by the respective fibrinolytic plasminogen activators.
Human plasmin is purchased from Boehringer Mannheim, Indianapolis, Ind.; nt-PA is purchased as single chain activity reference from American Diagnostica, Greenwich, Conn. modified-t-PA6 (mt-PA6) is prepared at Eli Lilly and Company by procedure known in the art (See, Burck, et al., J. Biol. Chem., 265, […] (1990). Plasmin chromogenic substrate H-D-Val-Leu-Lys-p-nitroanilide and tissue plasminogen activator (t-PA) substrate H-D-Ile-Pro-Arg-p-nitroanilide are purchased from Kabi Vitrum, Stockholm, Sweden.

[8] = target: T4, Human plasmin (Homo sapiens, UniProt P00747); assay: Kass with plasmin, chromogenic substrate; conditions: substrate H-D-Val-Leu-Lys-p-nitroanilide
T4 construct: Human plasmin is purchased; purchased Boehringer Mannheim, Indianapolis, Ind

[9] = mean over a range of concentrations, […]

T3 sequence (P00750 36-562): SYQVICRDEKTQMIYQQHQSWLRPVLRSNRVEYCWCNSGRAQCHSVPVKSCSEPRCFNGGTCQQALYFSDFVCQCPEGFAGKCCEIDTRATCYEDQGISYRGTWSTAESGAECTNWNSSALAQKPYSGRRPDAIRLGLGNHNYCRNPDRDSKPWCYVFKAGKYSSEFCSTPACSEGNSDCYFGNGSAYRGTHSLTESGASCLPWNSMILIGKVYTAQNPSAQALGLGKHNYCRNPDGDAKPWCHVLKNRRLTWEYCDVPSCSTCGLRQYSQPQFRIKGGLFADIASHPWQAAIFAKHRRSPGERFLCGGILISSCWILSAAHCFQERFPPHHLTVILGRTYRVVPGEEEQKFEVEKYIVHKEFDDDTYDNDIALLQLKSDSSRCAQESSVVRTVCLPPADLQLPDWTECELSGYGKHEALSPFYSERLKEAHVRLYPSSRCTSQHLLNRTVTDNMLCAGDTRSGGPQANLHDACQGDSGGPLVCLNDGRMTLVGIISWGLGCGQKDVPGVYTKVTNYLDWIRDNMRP
T4 sequence (P00747 97-810): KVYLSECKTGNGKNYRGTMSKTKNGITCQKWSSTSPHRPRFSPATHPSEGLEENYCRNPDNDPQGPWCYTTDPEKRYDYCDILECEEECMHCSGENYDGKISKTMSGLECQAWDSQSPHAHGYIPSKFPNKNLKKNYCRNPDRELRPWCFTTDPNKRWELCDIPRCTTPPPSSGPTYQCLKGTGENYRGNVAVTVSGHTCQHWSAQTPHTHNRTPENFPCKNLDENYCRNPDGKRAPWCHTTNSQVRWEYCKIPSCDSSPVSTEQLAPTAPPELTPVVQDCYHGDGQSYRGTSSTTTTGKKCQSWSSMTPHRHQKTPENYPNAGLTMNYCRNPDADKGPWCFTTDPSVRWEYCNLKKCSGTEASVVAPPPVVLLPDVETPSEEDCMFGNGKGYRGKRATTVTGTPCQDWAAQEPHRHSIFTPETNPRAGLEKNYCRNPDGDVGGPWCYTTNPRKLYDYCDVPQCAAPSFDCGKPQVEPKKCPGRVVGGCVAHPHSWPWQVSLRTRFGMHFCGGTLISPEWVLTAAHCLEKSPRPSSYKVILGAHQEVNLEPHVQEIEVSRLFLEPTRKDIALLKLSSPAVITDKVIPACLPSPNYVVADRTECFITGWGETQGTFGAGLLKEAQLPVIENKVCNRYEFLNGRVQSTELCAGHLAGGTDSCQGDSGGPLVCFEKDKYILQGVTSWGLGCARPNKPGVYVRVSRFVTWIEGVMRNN
T4 sequence (P00747 97-580 partner limits assumed): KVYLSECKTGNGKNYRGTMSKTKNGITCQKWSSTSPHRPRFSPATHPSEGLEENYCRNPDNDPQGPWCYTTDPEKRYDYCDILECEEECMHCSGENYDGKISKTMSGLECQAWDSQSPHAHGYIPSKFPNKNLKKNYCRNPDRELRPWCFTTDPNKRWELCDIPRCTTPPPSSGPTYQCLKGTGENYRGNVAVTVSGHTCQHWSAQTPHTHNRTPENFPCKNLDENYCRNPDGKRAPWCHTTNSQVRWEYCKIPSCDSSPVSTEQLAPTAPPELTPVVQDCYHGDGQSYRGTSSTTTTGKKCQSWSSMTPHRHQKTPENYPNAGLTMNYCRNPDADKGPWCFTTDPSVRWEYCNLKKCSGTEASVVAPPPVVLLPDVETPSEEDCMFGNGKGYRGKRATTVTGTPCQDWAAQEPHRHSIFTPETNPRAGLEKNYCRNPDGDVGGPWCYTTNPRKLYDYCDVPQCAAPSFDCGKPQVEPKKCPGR
T2 sequence (P00742 235-488 limits assumed): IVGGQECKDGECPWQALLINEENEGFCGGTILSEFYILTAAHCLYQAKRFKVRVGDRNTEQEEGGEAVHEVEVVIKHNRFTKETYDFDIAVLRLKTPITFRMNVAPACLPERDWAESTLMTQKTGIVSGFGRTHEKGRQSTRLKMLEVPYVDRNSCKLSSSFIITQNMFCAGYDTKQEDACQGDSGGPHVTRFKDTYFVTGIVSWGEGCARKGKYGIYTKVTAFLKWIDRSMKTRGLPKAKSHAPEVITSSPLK
T2 sequence (P00742 41-179 partner limits assumed): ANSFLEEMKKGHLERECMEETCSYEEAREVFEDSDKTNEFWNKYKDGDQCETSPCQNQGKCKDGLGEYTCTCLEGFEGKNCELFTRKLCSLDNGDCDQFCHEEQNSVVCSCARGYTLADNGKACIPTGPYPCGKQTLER

| Compound | Human Plasma Anticoagulation 2× Clotting time PT [1] | Kass Trypsin [2] | Human Plasma Anticoagulation 2× Clotting time APTT [3] | Kass Human Thrombin [4, 9] | Human Plasma Anticoagulation 2× Clotting time TT [5] | Kass Xa [6] | Kass t-PA [7] | Kass Plasmin [8] | Kass Human Thrombin [4] |
| --- | --- | --- | --- | --- | --- | --- | --- | --- | --- |
| N=C(N)c1cccc(CCCNC(=O)[C@@H]2CCCN2C(=O)[C@@H]2NCC[C@@H]3CCCC[C@@H]32)c1 [Example 33, 1-Piq-Pro-m-NHCH2 CH2 CH2 --C6 H4 C(=NH)NH2.HCl] | 70,900 ng/mL | 0.02 × 10^6 (L/mole) | 59,300 ng/mL | 0.04 × 10^6 (L/mole) | 18,900 ng/mL | 0.04 × 10^6 (L/mole) | < 0.001 × 10^6 (L/mole) | < 0.001 × 10^6 (L/mole) | – |
| CCS(=O)(=O)N[C@H](Cc1ccccc1)C(=O)N1CCC[C@H]1C(=O)NCCc1ccc(NC(=N)N)cc1 [Example 35, EtSO2 -D-Phe-Pro-p-NHCH2 CH2 C6 H4 CNH(NH)NH2.HCl] | 78,400 ng/mL | 0.04 × 10^6 (L/mole) | 50,400 ng/mL | 0.09 × 10^6 (L/mole) | 4,500 ng/mL | < 0.001 × 10^6 (L/mole) | < 0.001 × 10^6 (L/mole) | < 0.001 × 10^6 (L/mole) | – |
| CCS(=O)(=O)N[C@H](Cc1ccccc1)C(=O)N1CCC[C@H]1C(=O)NCc1cccc(NC(=N)N)c1 [Example 36, EtSO2 -D-Phe-Pro-m-NHCH2 C6 H4 NHC(NH)NH2.HCl] | > 91,000 ng/mL | 0.01 × 10^6 (L/mole) | > 91,000 ng/mL | 0.06 × 10^6 (L/mole) | 7,700 ng/mL | < 0.001 × 10^6 (L/mole) | < 0.001 × 10^6 (L/mole) | < 0.001 × 10^6 (L/mole) | – |
| N=C(N)c1ccc(CNC(=O)[C@@H]2CCCN2C(=O)[C@@H](CC2CCCCC2)NCC(=O)O)cc1 [Example 48, HOOCCH2 -D-Cha-Pro-p-NHCH2 C6 H4 C(NH)NH2.HCl] | 59 ng/mL | 250 × 10^6 (L/mole) | 33 ng/mL | 4,100 × 10^6 (L/mole) | 2 ng/mL | 5.5 × 10^6 (L/mole) | 0.05 × 10^6 (L/mole) | 0.43 × 10^6 (L/mole) | – |
| O=C(O)CN[C@H](CC1CCCCC1)C(=O)N1CCC[C@H]1C(=O)NCC1CCNCC1 [Example 53, HO2 CCH2 -D-Cha-Pro-4-NHCH2 -piperidine.HCl] | 34,500 ng/mL | 0.1 × 10^6 (L/mole) | 33,800 ng/mL | 0.36 × 10^6 (L/mole) | 1,400 ng/mL | < 0.001 × 10^6 (L/mole) | < 0.001 × 10^6 (L/mole) | < 0.001 × 10^6 (L/mole) | – |
| O=C(O)CN[C@H](CC1CCCCC1)C(=O)N1CCC[C@H]1C(=O)NCCC1CCNCC1 [Example 54, HO2 CCH2 -D-Cha-Pro-4-NHCH2 CH2 -piperidine.HCl] | 2,200 ng/mL | 0.52 × 10^6 (L/mole) | 3,300 ng/mL | 2.8 × 10^6 (L/mole) | 140 ng/mL | < 0.001 × 10^6 (L/mole) | < 0.001 × 10^6 (L/mole) | 0.01 × 10^6 (L/mole) | – |
| O=C(O)CN[C@H](CC1CCCCC1)C(=O)N1CCC[C@H]1C(=O)NCCCC1CCNCC1 [Example 55, HO2 CCH2 -D-Cha-Pro-4-NHCH2 CH2 CH2 -piperidine.HCl] | > 91,000 ng/mL | 0.01 × 10^6 (L/mole) | > 91,000 ng/mL | 0.01 × 10^6 (L/mole) | 55,800 ng/mL | < 0.001 × 10^6 (L/mole) | < 0.001 × 10^6 (L/mole) | < 0.001 × 10^6 (L/mole) | – |
| N=C(N)N1CCC(CNC(=O)[C@@H]2CCCN2C(=O)[C@@H](CC2CCCCC2)NCC(=O)O)CC1 [Example 56, HO2 CCH2 -D-Cha-Pro-4-NHCH2 -1-amidinopiperidine.HCl] | 200 ng/mL | 3.6 × 10^6 (L/mole) | 160 ng/mL | 490 × 10^6 (L/mole) | 5 ng/mL | 0.20 × 10^6 (L/mole) | < 0.001 × 10^6 (L/mole) | 0.01 × 10^6 (L/mole) | – |
| N=C(N)N1CCC(CCNC(=O)[C@@H]2CCCN2C(=O)[C@@H](CC2CCCCC2)NCC(=O)O)CC1 [Example 57, HO2 CCH2 -D-Cha-Pro-4-NHCH2 CH2 -1-amidinopiperidine.HCl] | 340 ng/mL | 0.24 × 10^6 (L/mole) | 360 ng/mL | – | 14 ng/mL | 0.01 × 10^6 (L/mole) | < 0.001 × 10^6 (L/mole) | 0.01 × 10^6 (L/mole) | 39 |
| O=C(O)CN[C@H](CC1CCCCC1)C(=O)N1CCC[C@H]1C(=O)NCC1=CCNCC1 [Example 58, HO2 CCH2 -D-Cha-Pro-4-NHCH2 -3,4-dehydro-piperidine.HCl] | 11,400 ng/mL | 0.40 × 10^6 (L/mole) | 14,300 ng/mL | 0.60 × 10^6 (L/mole) | 710 ng/mL | < 0.001 × 10^6 (L/mole) | < 0.001 × 10^6 (L/mole) | < 0.001 × 10^6 (L/mole) | – |
| O=C(O)CN[C@H](CC1CCCCC1)C(=O)N1CCC[C@H]1C(=O)NCCC1=CCNCC1 [Example 59, HO2 CCH2 -D-Cha-Pro-4-NHCH2 CH2 -3,4-dehydro-piperidine.HCl] | 7,000 ng/mL | 0.21 × 10^6 (L/mole) | 5,500 ng/mL | 1.10 × 10^6 (L/mole) | 420 ng/mL | < 0.001 × 10^6 (L/mole) | < 0.001 × 10^6 (L/mole) | < 0.001 × 10^6 (L/mole) | – |
| O=C(O)CN[C@H](CC1CCCCC1)C(=O)N1CCC[C@H]1C(=O)NCCCC1=CCNCC1 [Example 60, HO2 CCH2 -D-Cha-Pro-4-NHCH2 CH2 CH2 -3,4-dehydro-piperidine.HCl] | 77,700 ng/mL | 0.03 × 10^6 (L/mole) | 22,200 ng/mL | 0.24 × 10^6 (L/mole) | 3,200 ng/mL | < 0.001 × 10^6 (L/mole) | < 0.001 × 10^6 (L/mole) | < 0.001 × 10^6 (L/mole) | – |
| N=C(N)NCCCCNC(=O)[C@@H]1CCCN1C(=O)[C@@H]1NCC[C@H]2CCCC[C@H]21 [Example 61, N-[4-[(aminoiminomethyl)amino]butyl]-1-[[(4aR,8aR)-decahydro-1(R)-isoquinolinyl]carbonyl]-1-prolinamide trihydrochloride] | 756 ng/mL | 1.0 × 10^6 (L/mole) | 679 ng/mL | 63 × 10^6 (L/mole) | 45 ng/mL | 0.03 × 10^6 (L/mole) | 0.008 × 10^6 (L/mole) | 0.004 × 10^6 (L/mole) | – |
